# According to ChEMBL document CHEMBL1140223, “Novel multifunctional acyloxyalkyl ester prodrugs of 5-aminolevulinic acid display improved anticancer activity independent and dependent on photoactivation” (J Med Chem, 2008):
# pIC50: −log10 of the molar value. The source made the active and inactive calls. The calls are words filed in the database; no cut-off is given here.
# Experiments:
# [1] = test system: HL-60; assay: Cytotoxicity against human HL60 cells after 72 hrs by MTT assay; type: functional, cell-based; conditions: HL-60, 72 h
# [2] = test system: U-251; assay: Cytotoxicity against human U251 cells after 72 hrs by Hoechst test; type: functional, cell-based; conditions: U-251, 72 h
# [3] = test system: U-251; assay: Induction of apoptosis in human U251 cells assessed as mitochondrial membrane potential dissipation at 100 uM after 24 hrs using JC1 dye by FACS relative to control; type: functional
# [4] = test system: U-251; assay: Increase in ROS production in human U251 cells at 50 uM after 4 hrs by FACS flow cytometry in presence of N-acetyl-L-cysteine; type: functional, cell-based
# [5] = test system: U-251; assay: Inhibition of 26S proteasome activity in human U251 cells at 100 uM after 48 hrs relative to control; type: cell-based; conditions: values are per cent of control
# [6] = test system: U-251; assay: Induction of apoptosis in human U251 cells assessed as early apoptotic cells at 100 uM after 48 hrs using annexin-V FITC and PI staining by flow cytometry; type: functional
# [7] = test system: U-251; assay: Induction of apoptosis in human U251 cells assessed as viable cells at 100 uM after 48 hrs using annexin-V FITC and PI staining by flow cytometry in presence of Z-Asp-2,6-dichlorobenzoyloxymethylketone; type: functional; conditions: U-251, 48 h, read-out: Activity
# [8] = test system: U-251; assay: Induction of apoptosis in human U251 cells assessed as late apoptotic cells at 100 uM after 48 hrs using annexin-V FITC and PI staining by flow cytometry in presence of Z-Asp-2,6-dichlorobenzoyloxymethylketone; type: functional
# [9] = test system: U-251; assay: Induction of necrosis in human U251 cells assessed as necrotic cells at 100 uM after 48 hrs using annexin-V FITC and PI staining by flow cytometry; type: functional
# [10] = test system: U-251; assay: Increase in heme level in human U251 cells assessed as porphobilinogen deaminase level at 100 uM after 2 hrs by Western blot relative to control; type: functional
# [11] = test system: U-251; assay: Cytotoxicity against human U251 cells assessed as ROS production by Hoechst test in presence of N-acetyl-L-cysteine; type: functional, cell-based
# [12] = test system: U-251; assay: Induction of necrosis in human U251 cells assessed as necrotic cells at 100 uM after 48 hrs using annexin-V FITC and PI staining by flow cytometry in presence of Z-Asp-2,6-dichlorobenzoyloxymethylketone; type: functional
# [13] = test system: U-251; assay: Induction of necrosis in human U251 cells assessed as necrotic cells at 100 uM after 48 hrs using annexin-V FITC and PI staining by flow cytometry in presence of Ac-LEHD-CHO; type: functional
# [14] = test system: U-251; assay: Induction of apoptosis in human U251 cells assessed as late apoptotic cells at 100 uM after 48 hrs using annexin-V FITC and PI staining by flow cytometry in presence of Ac-LEHD-CHO; type: functional
# [15] = test system: U-251; assay: Induction of apoptosis in human U251 cells assessed as late apoptotic cells at 100 uM after 48 hrs using annexin-V FITC and PI staining by flow cytometry; type: functional
# [16] = test system: U-251; assay: Induction of apoptosis in human U251 cells assessed as increase in full length caspase 8 level after 24 hrs by Western blot; type: functional, cell-based
# [17] = test system: U-251; assay: Induction of apoptosis in human U251 cells assessed as early apoptotic cells at 100 uM after 48 hrs using annexin-V FITC and PI staining by flow cytometry in presence of Z-Asp-2,6-dichlorobenzoyloxymethylketone; type: functional
# [18] = test system: U-251; assay: Induction of apoptosis in human U251 cells assessed as early apoptotic cells at 100 uM after 48 hrs using annexin-V FITC and PI staining by flow cytometry in presence of Ac-LEHD-CHO; type: functional
# [19] = test system: U-251; assay: Induction of apoptosis in human U251 cells assessed as viable cells at 100 uM after 48 hrs using annexin-V FITC and PI staining by flow cytometry in presence of Ac-LEHD-CHO; type: functional; conditions: U-251, 48 h, read-out: Activity
# [20] = test system: U-251; assay: Induction of apoptosis in human U251 cells assessed as viable cells at 100 uM after 48 hrs using annexin-V FITC and PI staining by flow cytometry; type: functional; conditions: U-251, 48 h, read-out: Activity
# [21] = Cytotoxicity against human MCF7/DX cells after 72 hrs by Hoechst test; type: functional, cell-based
# [22] = test system: MCF7; assay: Cytotoxicity against human MCF7 cells after 72 hrs by Hoechst test; type: functional, cell-based; conditions: MCF7, 72 h
# [23] = test system: U-251; assay: Increase in heme level in human U251 cells assessed as porphobilinogen deaminase level at 100 uM after 2 hrs by Western blot in presence of cycloheximide; type: functional, cell-based
# [24] = test system: U-251; assay: Induction of apoptosis in human U251 cells assessed as increase in cleaved caspase 9 level after 24 hrs by Western blot; type: functional, cell-based
# [25] = test system: U-251; assay: Inhibition of 26S proteasome activity in human U251 cells at 100 uM after 48 hrs in presence of N-acetyl-L-cysteine relative to control; type: cell-based; conditions: values are per cent of control
# [26] = test system: U-251; assay: Induction of apoptosis in human U251 cells assessed as increase in cleaved caspase 3 level after 24 hrs by Western blot; type: functional, cell-based
# [27] = test system: U-251; assay: Induction of histone H4 hyperacetylation in human U251 cells at 100 uM after 4 hrs by Western blot relative to control; type: functional
# [28] = test system: U-251; assay: Inhibition of 26S proteasome activity in human U251 cells at 100 uM after 24 hrs relative to control; type: cell-based
# [29] = test system: U-251; assay: Increase in protoporphyrin 9 levels in human U251 cells at 200 uM after 24 hrs relative to control; type: functional
# [30] = test system: U-251; assay: Increase in CDKp21 expression levels in human U251 cells at 100 uM after 24 hrs by Western blot; type: functional, cell-based
# [31] = test system: U-251; assay: Antiproliferative activity against human U251 cells assessed as PpIX release after 72 hrs by Hoechst test; type: functional, cell-based; conditions: U-251, 72 h
# [32] = test system: U-251; assay: Increase in protoporphyrin 9 levels in human U251 cells at 100 uM after 24 hrs relative to control; type: functional
# [33] = test system: U-251; assay: Increase in ROS production in human U251 cells at 50 uM after 4 hrs by FACS flow cytometry; type: functional
# [34] = test system: U-251; assay: Antiproliferative activity against human U251 cells assessed as PpIX release pretreated 72 hrs before 360-410 nm light photosensitization measured after 48 hrs by Hoechst test; type: functional, cell-based
# [35] = test system: U-251; assay: Increase in pH2AX expression levels in human U251 cells at 100 uM after 2 hrs by Western blot; type: functional, cell-based
# [36] = test system: U-251; assay: Increase in p-c-Jun expression levels in human U251 cells at 100 uM after 2 hrs by Western blot relative to control; type: functional
# [37] = test system: U-251; assay: Induction of histone H4 hyperacetylation in human U251 cells at 100 uM after 24 hrs by Western blot relative to control; type: functional
# [38] = test system: U-251; assay: Increase in pERK expression levels in human U251 cells at 100 uM after 2 hrs by Western blot relative to control; type: functional
# [39] = test system: U-251; assay: Reduction in c-myc expression levels in human U251 cells at 100 uM after 4 hrs by Western blot; type: functional, cell-based
# [40] = test system: U-251; assay: Increase in heme level in human U251 cells at 100 uM after 48 hrs by Western blot relative to control; type: functional
# [41] = test system: U-251; assay: Increase in CDKp21 expression levels in human U251 cells at 100 uM after 4 hrs by Western blot; type: functional, cell-based
# [42] = test system: U-251; assay: Increase in ROS production in human U251 cells at 100 uM after 4 hrs by FACS in presence of N-acetyl-L-cysteine; type: functional, cell-based
# [43] = test system: U-251; assay: Inhibition of 26S proteasome activity in human U251 cells at 0.5 mM after 24 hrs; type: cell-based
# [44] = test system: U-251; assay: Increase in ROS production in human U251 cells at 100 uM after 4 hrs by FACS; type: functional, cell-based
# [45] = test system: U-251; assay: Inhibition of 26S proteasome activity in human U251 cells at 1 mM after 48 hrs; type: cell-based
SMILES,pIC50 [1],pIC50 [2],Activity [4],residual activity [5],Activity [6],viability at 100 µM [7],Activity [8],Activity [9],fold change (FC) [10],Activity [12],Activity [13],Activity [14],Activity [15],Activity [17],Activity [18],viability at 100 µM [19],viability at 100 µM [20],pIC50 [21],pIC50 [22],residual activity [25],other results
CC(OC(=O)CCC(=O)CN)OC(=O)C(C)(C)C (centres undefined),2.86,2.69,–,–,–,–,–,–,–,–,–,–,–,–,–,–,–,–,–,–,–
CC(C)(C)C(=O)OCOC(=O)CCC(=O)CN.Cl,4.36,4.03,inactive,54%,15%,82%,5%,9%,2,11%,17%,4%,9%,2%,2%,77%,67%,4.21,4.19,101%,fold change (FC) [3]: 3; Activity [11]: inactive; Activity [16]: Active; Activity [23]: Active; Activity [24]: Active; Activity [26]: Active; Activity [27]: inactive
CCCC(=O)OCOP(=O)(OCC)OCC [(DIETHOXYPHOSPHORYLOXY)METHYL BUTYRATE],–,4.05,Active,–,–,–,–,–,–,–,–,–,–,–,–,–,–,–,–,–,Activity [28]: Active; Activity [29]: inactive
CCCC(=O)OC(C)OC(=O)CCC(=O)CN.Cl (centres undefined),3.56,3.14,–,117%,4%,88%,3%,10%,2,7%,8%,3%,6%,2%,3%,86%,80%,3.09,3.15,146%,Activity [30]: Active; Activity [11]: Active; pIC50 [31]: 3.12; fold change (FC) [32]: 5; Activity [33]: Active; fold change (FC) [29]: 7.8; fold change (FC) [27]: 1.4; pIC50 [34]: 3.29
CCCC(CCC)C(=O)OC(C)OC(=O)CCC(=O)CN (centres undefined),3.11,2.98,–,–,–,–,–,–,–,–,–,–,–,–,–,–,–,–,–,–,–
CCCC(=O)OCOC(=O)CCC(=O)CN.Cl,4.24,4.05,Active,56%,17%,80%,5%,19%,8,11%,15%,2%,17%,4%,2%,81%,47%,4.08,4.13,64%,fold change (FC) [3]: 2.4; inhibition [28]: 40%; Activity [35]: Active; Activity [11]: Active; fold change (FC) [36]: 9.5; fold change (FC) [37]: 2; fold change (FC) [38]: 5.4; pIC50 [31]: 4.00; fold change (FC) [32]: 6.6; Activity [39]: Active; Activity [33]: 68%; Activity [16]: Active; Activity [40]: 260%; Activity [23]: inactive; fold change (FC) [29]: 12.4; Activity [41]: Active; Activity [24]: Active; Activity [26]: Active; fold change (FC) [27]: 1.4; pIC50 [34]: 4.23
CCCC(=O)O [BUTYRIC ACID],–,3.03,–,74%,–,–,–,–,–,–,–,–,–,–,–,–,–,–,–,80%,Activity [42]: Active; Activity [43]: Active; Activity [40]: 126%; Activity [44]: Active
NCC(=O)CCC(=O)O [AMINOLEVULINIC ACID],2.80,2.57,–,100%,6%,76%,5%,7%,2,17%,17%,3%,14%,2%,2%,78%,76%,2.46,2.76,102%,pIC50 [31]: 2.57; Activity [45]: Active; fold change (FC) [32]: 3; Activity [42]: inactive; Activity [16]: Active; Activity [40]: 130%; Activity [44]: Active; Activity [23]: Active; fold change (FC) [29]: 7.2; pIC50 [34]: 2.57
CCCC(CCC)C(=O)OCOC(=O)CCC(=O)CN,–,4.19,–,–,–,–,–,–,–,–,–,–,–,–,–,–,–,–,–,–,–
